Structures are written as SMILES.

Chain of Human cGAS amino acids 155-522 (Q8N884 157-522): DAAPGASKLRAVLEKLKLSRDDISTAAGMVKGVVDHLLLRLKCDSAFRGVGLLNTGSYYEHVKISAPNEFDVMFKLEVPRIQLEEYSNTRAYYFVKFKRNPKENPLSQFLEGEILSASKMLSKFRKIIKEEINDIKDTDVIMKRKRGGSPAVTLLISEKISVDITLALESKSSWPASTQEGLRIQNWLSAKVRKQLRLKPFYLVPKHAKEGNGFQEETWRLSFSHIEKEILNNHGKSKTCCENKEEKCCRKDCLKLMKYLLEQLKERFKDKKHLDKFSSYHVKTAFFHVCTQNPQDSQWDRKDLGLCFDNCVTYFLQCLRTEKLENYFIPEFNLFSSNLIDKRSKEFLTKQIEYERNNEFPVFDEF

This test addresses Human cGAS amino acids 155-522 (Homo sapiens (Human), UniProt Q8N884). The experiment in a line: cGAS biochemical activity assay (ATP remaining, Kinase-Glo Max luminescence). The conditions noted are these: human cGAS 155-522, ATP remaining (Kinase-Glo Max); read-out: cGAS IC50. For orientation: Kinase-Glo reads ATP consumption through a luciferase reaction.
Take `Cc1[nH]c2c(-c3ccccc3)c(C(F)(F)F)nn2c(=O)c1-c1nc2ccccc2n1CC1CCCC1` [Compound C1235, 6-(1-(cyclopentylmethyl)-1H-benzo[d]imidazol-2-yl)-5-methyl-3-phenyl-2-(trifluoromethyl)pyrazolo[1,5-a]pyrimidin-7(4H)-one]: the half-inhibitory concentration (IC50) was 20 to 250 µM.

Consider `COc1cccc2oc(-c3c(C4CCC(C(=O)O)C4)[nH]c4c(-c5ccccc5)c(C(F)(F)F)nn4c3=O)nc12` (centres unmarked) [Compound C1239, 3-(6-(4-methoxybenzo[d]oxazol-2-yl)-7-oxo-3-phenyl-2-(trifluoromethyl)-4,7-dihydropyrazolo[1,5-a]pyrimidin-5-yl)cyclopentane-1-carboxylic acid], for which the IC50 is < 20 µM.

`COc1cccc2oc(-c3c(C)[nH]c4c(-c5ccccc5)c(C5CC5)nn4c3=O)nc12` [Compound C1242, 2-cyclopropyl-6-(4-methoxybenzo[d]oxazol-2-yl)-5-methyl-3-phenylpyrazolo[1,5-a]pyrimidin-7(4H)-one]: the IC50 was > 250 µM.

As for `Cc1[nH]c2c(-c3ccccc3)c(C(F)(F)F)nn2c(=O)c1-c1n[nH]c(=O)o1` [Compound C1247, 5-(5-methyl-7-oxo-3-phenyl-2-(trifluoromethyl)-4,7-dihydropyrazolo[1,5-a]pyrimidin-6-yl)-1,3,4-oxadiazol-2(3H)-one], the concentration for half-maximal inhibition (IC50) is < 20 µM.

As to `Cc1[nH]c2c(C3CC3)c(C(F)(F)F)nn2c(=O)c1Cc1ccccc1` [Compound C1264, 6-benzyl-3-cyclopropyl-5-methyl-2-(trifluoromethyl)pyrazolo[1,5-a]pyrimidin-7(4H)-one], the 50% inhibitory concentration (IC50) was > 250 µM.

Regarding `Cc1[nH]c2c(C3CC3)c(C(F)(F)F)nn2c(=O)c1-c1ccccc1` [Compound C1265, 3-cyclopropyl-5-methyl-6-phenyl-2-(trifluoromethyl)pyrazolo[1,5-a]pyrimidin-7(4H)-one], the IC50 was > 250 µM.

Turning to `Cc1[nH]c2c(C3CCCC3)c(C(F)(F)F)nn2c(=O)c1-c1ccccc1` [Compound C1266, 3-cyclopentyl-5-methyl-6-phenyl-2-(trifluoromethyl)pyrazolo[1,5-a]pyrimidin-7(4H)-one], the concentration for half-maximal inhibition (IC50) is > 250 µM.

On to `Cc1[nH]c2c(C3CCCC3)c(C(F)(F)F)nn2c(=O)c1Cc1ccccc1` [Compound C1267, 6-benzyl-3-cyclopentyl-5-methyl-2-(trifluoromethyl)pyrazolo[1,5-a]pyrimidin-7(4H)-one], for which the IC50 is > 250 µM.

Consider `Cc1[nH]c2c(C(C)C)c(C(F)(F)F)nn2c(=O)c1Cc1ccccc1` [Compound C1268, 6-benzyl-3-isopropyl-5-methyl-2-(trifluoromethyl)pyrazolo[1,5-a]pyrimidin-7(4H)-one], for which the half-maximal inhibitory concentration (IC50) was > 250 µM.

For `Cc1[nH]c2c(-c3ccccc3)c(C#N)nn2c(=O)c1-c1ncco1` [Compound C1270, 5-methyl-6-(oxazol-2-yl)-7-oxo-3-phenyl-4,7-dihydropyrazolo[1,5-a]pyrimidine-2-carbonitrile], the half-maximal inhibitory concentration (IC50) is < 20 µM.

With `Cc1[nH]c2c(-c3ccccc3)c(C#N)nn2c(=O)c1-c1nc2ccccc2n1C1CCCCC1` [Compound C1276, 6-(1-cyclohexyl-1H-benzo[d]imidazol-2-yl)-5-methyl-7-oxo-3-phenyl-4,7-dihydropyrazolo[1,5-a]pyrimidine-2-carbonitrile], the 50% inhibitory concentration (IC50) was < 20 µM.

With `Cc1[nH]c2c(-c3ccccc3)c(C#N)nn2c(=O)c1-c1nc2c(OC3CC3)cccc2o1` [Compound C1277, 6-(4-cyclopropoxybenzo[d]oxazol-2-yl)-5-methyl-7-oxo-3-phenyl-4,7-dihydropyrazolo[1,5-a]pyrimidine-2-carbonitrile], the IC50 is < 20 µM.

`COc1cccc2oc(-c3c(P(C)(C)=O)[nH]c4c(-c5ccccc5)c(C(F)(F)F)nn4c3=O)nc12` [Compound C1284, 5-(dimethylphosphoryl)-6-(4-methoxybenzo[d]oxazol-2-yl)-3-phenyl-2-(trifluoromethyl)pyrazolo[1,5-a]pyrimidin-7(4)-one]: the IC50 was < 20 µM.

Turning to `Cc1nnc(-c2c(C)[nH]c3c(-c4ccccc4)c(C(F)(F)F)nn3c2=O)o1` [Compound D1001, 5-methyl-6-(5-methyl-1,3,4-oxadiazol-2-yl)-3-phenyl-2-(trifluoromethyl)pyrazolo[1,5-a]pyrimidin-7(4H)-one], the half-maximal inhibitory concentration (IC50) lay in the range of 20 to 250 µM.

Regarding `COc1ccc(-c2nnc(-c3c(C)[nH]c4c(-c5ccccc5)c(C(F)(F)F)nn4c3=O)o2)cc1` [Compound D1002, 6-(5-(4-methoxyphenyl)-1,3,4-oxadiazol-2-yl)-5-methyl-3-phenyl-2-(trifluoromethyl)pyrazolo[1,5-a]pyrimidin-7(4H)-one], the IC50 was > 250 µM.

`Cc1[nH]c2c(-c3ccccc3)c(C(F)(F)F)nn2c(=O)c1-c1nnc(C2CCCC2)o1` [Compound D1003, 6-(5-cyclopentyl-1,3,4-oxadiazol-2-yl)-5-methyl-3-phenyl-2-(trifluoromethyl)pyrazolo[1,5-a]pyrimidin-7(4H)-one]: the IC50 was < 20 µM.

Consider `Cc1[nH]c2c(-c3ccccc3)c(C(F)(F)F)nn2c(=O)c1-c1nnc(C(C)C)o1` [Compound D1005, 6-(5-isopropyl-1,3,4-oxadiazol-2-yl)-5-methyl-3-phenyl-2-(trifluoromethyl)pyrazolo[1,5-a]pyrimidin-7(4H)-one], for which the half-maximal inhibitory concentration (IC50) lay within 20 to 250 µM.

As to `Cc1[nH]c2c(-c3ccccc3)c(C(F)(F)F)nn2c(=O)c1-c1nnc(C2CCCCC2)s1` [Compound D1006, 6-(5-cyclohexyl-1,3,4-thiadiazol-2-yl)-5-methyl-3-phenyl-2-(trifluoromethyl)pyrazolo[1,5-a]pyrimidin-7(4H)-one], the IC50 was < 20 µM.

With `Cc1[nH]c2c(-c3ccccc3)c(C(F)(F)F)nn2c(=O)c1-c1nnc(N2CCOCC2)o1` [Compound D1009, 5-methyl-6-(5-morpholino-1,3,4-oxadiazol-2-yl)-3-phenyl-2-(trifluoromethyl)pyrazolo[1,5-a]pyrimidin-7(4H)-one], the IC50 was in the range of 20 to 250 µM.

As for `Cc1[nH]c2c(-c3ccccc3)c(C(F)(F)F)nn2c(=O)c1-c1nnc(-c2ccccc2)o1` [Compound D1011, 5-methyl-3-phenyl-6-(5-phenyl-1,3,4-oxadiazol-2-yl)-2-(trifluoromethyl)pyrazolo[1,5-a]pyrimidin-7(4H)-one], the concentration for half-maximal inhibition (IC50) is > 250 µM.

Turning to `Cc1[nH]c2c(-c3ccccc3)c(C(F)(F)F)nn2c(=O)c1-c1nnc(C2CCOC2)o1` (centres unmarked) [Compound D1013, 5-methyl-3-phenyl-6-(5-(tetrahydrofuran-3-yl)-1,3,4-oxadiazol-2-yl)-2-(trifluoromethyl)pyrazolo[1,5-a]pyrimidin-7(4H)-one], the IC50 was in the range of 20 to 250 µM.

For the compound `Cc1[nH]c2c(C3CCCC3)c(C(F)(F)F)nn2c(=O)c1-c1nnc(C2CCCCC2)o1` [Compound D1017, 6-(5-cyclohexyl-1,3,4-oxadiazol-2-yl)-3-cyclopentyl-5-methyl-2-(trifluoromethyl)pyrazolo[1,5-a]pyrimidin-7(4H)-one], the IC50 was > 250 µM.

For the compound `Cc1[nH]c2c(-c3ccccc3)c(C(F)(F)F)nn2c(=O)c1-c1nnc(C2CCCN(C(=O)OC(C)(C)C)C2)o1` (centres unmarked) [Compound D1031, tert-butyl 3-(5-(5-methyl-7-oxo-3-phenyl-2-(trifluoromethyl)-4,7-dihydropyrazolo[1,5-a]pyrimidin-6-yl)-1,3,4-oxadiazol-2-yl)piperidine-1-carboxylate], the IC50 fell in the range of 20 to 250 µM.

A word on the IC50: it is the concentration needed to halve the response being measured.
